Laboratory results as given in patent US20210353611A1, “METHODS OF TREATING AMYOTROPHIC LATERAL SCLEROSIS” (Yeda Research and Development Co. Ltd., priority 2018, published 2021).
Counter-ions that a name gives are not always drawn.

Assays:
[1] = NAM levels in CSF and sera of mice (targeted metabolomics); conditions: NAM 49.28 mg/kg/week s.c. osmotic pumps; SOD1-Tg mice vs water-treated controls
Procedure: Mice were anesthetized by i.p. injection of ketamine (100 mg/kg) and xylazine (10 mg/kg). The skin of the neck was shaved, and the mouse was placed prone on the stereotaxic instrument. The head was secured with the head adaptors. […] Under the dissection microscope, the subcutaneous tissue and muscles (m. biventer cervicis and m. rectus capitis dorsalis major) were separated by blunt dissection with forceps. A pair of micro-retractors is used to hold the muscles apart. The dura mater was blotted dry with sterile cotton swab. CSF was collected using a capillary tube to penetrate into the cisterna magna through the dura mater, lateral to the arteria dorsalis spinalis, immediately frozen in liquid nitrogen and stored at −80° C.
The samples (in 50% Methanol) were dried in a speed vac to blow off the methanol before drying to completion in a lyophilizer. All samples were re-dissolved in 100 μl of 0.1% formic acid.
Liquid Chromatography: Liquid chromatography was performed on a Waters Acquity UPLC system. […] Mobile phase consisted of (A) water and (B) acetonitrile each containing 0.1% formic acid. […]
Mass Spectrometry: LC-MS/MS analysis was performed on a Waters Xevo triple quadrupole equipped with a Zspray ESI source. […] TargetLynx (Waters) was used for Qualitative and Quantitative analysis.

SOD1-Tg mice [2] = assay: Motor function tests (rotarod, hanging-wire grip test, neurological scoring) in ALS mouse model; type: in vivo; conditions: subcutaneously implanted mini osmotic pumps, continuous administration; vs vehicle-treated SOD1-Tg mice
Text: G93A mSOD1-Tg mice on a C57BL/6 background were used. In all experiments, age- and gender-matched mice were used and WT littermates as controls. Mice were 40 days of age at the beginning of experiments. All mice were kept at a strict 24 hr reverse light-dark cycle, with lights being turned on from 10 pm to 10 am. Tryptophan-deficient diet (A10033Yi, Research diets, NJ, USA) was applied from the age of 40 days until the experimental end-point. For antibiotic treatment, mice were given a combination of vancomycin (0.5 g/l), ampicillin (1 g/l), kanamycin (1 g/l), and metronidazole (1 g/l) in their drinking water from the age of 40 days as previously described (Levy et al., 2015). […]
Vehicle control pumps contained equivalent volume of Ultra-pure water. […] The cut was then closed with sterile surgical clips and the animals were carefully monitored for any signs of stress, bleeding, pain, or abnormal behavior. […]
Rotarod: To assess motor coordination and balance, each mouse was tested with a rotarod device (Panlab Le8500 Harvard Apparatus, Spain), in acceleration speed mode (increasing from 4 rpm to 40 rpm during 10 min), with a maximum test time of 5 min. […] Each mouse was recorded three times at the ages of 60, 80, 100, 120 and 140 days. The apparatus automatically recorded the elapsed time when the mouse fell from the spindle. […]

SOD1-Tg mice [3] = assay: Survival of SOD1-Tg mice; type: in vivo, mouse; conditions: NAM s.c. osmotic pumps vs vehicle; p=0.1757, Log-rank test
Procedure: From the age of 130 days, mice were monitored daily. The endpoint was defined by reaching neurological score of 4 and/or more than 15% reduction in body weight. The probability of survival was calculated using the Kaplan-Meier method, and statistical analysis was performed using a log-rank test.

Structure (SMILES) | NAM levels in sera [1] | ALS symptoms / behavioral and neurological motor tests (SOD1-Tg mice [2]) | Survival (SOD1-Tg mice [3])
NC(=O)c1cccnc1 [NAM, Nicotinamide] | significantly increased | performed significantly better | non-significantly trend to improve survival
O=S(=O)(O)Oc1ccccc1 [Phenol sulfate] | – | did not affect ALS symptoms | –
